Test systems include BT-549 breast; DU-145 prostate; HS 578T breast; MDA-MB-231 breast; MDA-MB-435; MDA-N; PC-3 prostate; T-47D breast; P388 leukemia; P388/ADR leukemia; SN12K1 renal.
Common to all, as to experiment: NCI tumour cell line growth inhibition, 48 h

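Results reflect a 48-hour exposure of cells in 96-well plates to compound at five concentrations. TGI: total growth inhibition.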

Take `S=C1Cc2c(-c3ccccc3)cc(-c3ccc(Cl)cc3)nc2-c2ccccc2N1`: the TGI in the assay on BT-549 breast was 37.9 µM; with DU-145 prostate, 53.1 µM; in the assay on HS 578T breast it was 4.23 µM; with MDA-MB-231 breast, 5.22 µM; with MDA-MB-435, greater than 38.8 µM; in the assay with MDA-N, 16.2 µM. The figures for the TGI in the assay with PC-3 prostate and with T-47D breast were 30.9 µM and greater than 57.3 µM, respectively.
For `COc1ccc(N[C@@H]2c3cc4c(cc3C(c3cc(OC)c(O)c(OC)c3)[C@H]3C(=O)OCC32)OCO4)cc1OC` (some centres undefined), the TGI with P388 leukemia is 10.9 µM; with P388/ADR leukemia it was 10.3 µM; in the assay on SN12K1 renal, greater than 34.8 µM.
In the case of `O=C(NCCN(CCNC(=O)c1cccc(=O)n1O)CCNC(=O)c1cccc(=O)n1O)c1cccc(=O)n1O`, the TGI in the assay on BT-549 breast, in the assay on DU-145 prostate, with HS 578T breast, with MDA-MB-231 breast, with MDA-MB-435 and in the assay with MDA-N was greater than 100 µM throughout. For the same molecule, the TGI in the assay with PC-3 prostate and with T-47D breast was greater than 100 µM each time.

The values above are taken from PubChem BioAssay (NCI).
